US8669247B2, “2,5-disubstituted arylsulfonamide CCR3 antagonists” (Axikin Pharmaceuticals, Inc., priority 2009, dated 2014)

How the values were obtained:
CCR3 receptor = target: T1, CCR3 receptor (UniProt P51677); experiment: CCR3 Receptor Binding Assay ([125I]-labeled human eotaxin/CCL11 displacement on cells); conditions: Free (free form of the compound)
T1 sequence (P51677 1-355): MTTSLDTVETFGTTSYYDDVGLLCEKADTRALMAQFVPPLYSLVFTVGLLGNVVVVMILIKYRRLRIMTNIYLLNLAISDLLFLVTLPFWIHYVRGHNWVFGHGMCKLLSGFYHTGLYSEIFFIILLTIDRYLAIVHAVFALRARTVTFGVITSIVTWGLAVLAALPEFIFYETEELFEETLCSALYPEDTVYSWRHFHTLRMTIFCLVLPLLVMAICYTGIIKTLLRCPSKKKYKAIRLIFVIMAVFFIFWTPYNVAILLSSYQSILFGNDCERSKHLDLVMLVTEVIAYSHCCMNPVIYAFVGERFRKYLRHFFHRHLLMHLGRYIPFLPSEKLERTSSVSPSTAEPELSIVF
Protocol: Cells were washed once with PBS and resuspended in a binding buffer (25 mM HEPES pH 7.6, 5 mM MgCl2, 1 mM CaCl2, 0.5% BSA, 0.1% NaN3), […] of cell suspension (2×10^5 cells/well) and 0.1 nM [^125I]-labeled human eotaxin/CCL11 (2000 Ci/mmol specific activity) were mixed in a 96-well U-bottom polypropylene plate, and incubated for 60 min at room temperature for the binding reaction. The cell suspension was then transferred to a filtration plate (#MAFB, Millipore), and washed 3 times with the binding buffer containing 0.5 M NaCl, scintillant added, and the radioactivity was counted on a TopCount (Packard). For the determination of non-specific binding, the cell suspension and [^125I]-labeled human eotaxin/CCL11 were incubated in the presence of 500 nM of unlabeled human eotaxin/CCL11. See, lino et al., “Molecular cloning and functional characterization of cynomolgus monkey (Macaca fascicularis) CC chemokine receptor, CCR3,” Cytokine 2002, 19, 276-286.

SMILES	Ki (CCR3 receptor) [nM]	melting point [°C]
CC1CN(S(=O)(=O)c2cc([N+](=O)[O-])ccc2Oc2cc(Cl)ccc2Cl)CC(C)N1 (stereo not shown) [Compound 104, 1-(2-(2,5-Dichlorophenoxy)-5-nitrophenylsulfonyl)-3,5-dimethylpiperazine]	10 to 25	161 to 163
O=[N+]([O-])c1ccc(Oc2cc(Cl)ccc2Cl)c(S(=O)(=O)N2CCOCC2)c1 [Compound 111, 4-(2-(2,5-Dichlorophenoxy)-5-nitrophenylsulfonyl)morpholine]	> 5	168 to 170
Cc1ccc(C)c(Sc2ccc([N+](=O)[O-])cc2S(=O)(=O)N2CCOCC2)c1 [Compound 112, 4-(2-(2,5-Dimethylphenylthio)-5-nitrophenylsulfonyl)morpholine]	> 5	141 to 143
Cc1ccc(C)c(Oc2ccc([N+](=O)[O-])cc2S(=O)(=O)N2CCOCC2)c1 [Compound 113, 4-(2-(2,5-Dimethylphenoxy)-5-nitrophenylsulfonyl)morpholine]	> 5	124 to 127
O=[N+]([O-])c1ccc(Oc2cc(Cl)ccc2Cl)c(S(=O)(=O)N2CCSCC2)c1 [Compound 115, 4-(2-(2,5-Dichlorophenoxy)-5-nitrophenylsulfonyl)thiomorpholine]	> 5	191 to 194
Cc1ccc(C)c(Sc2ccc([N+](=O)[O-])cc2S(=O)(=O)N2CCSCC2)c1 [Compound 116, 4-(2-(2,5-Dimethylphenylthio)-5-nitrophenylsulfonyl)thiomorpholine]	> 5	130 to 137
Cc1ccc(C)c(Oc2ccc([N+](=O)[O-])cc2S(=O)(=O)N2CCSCC2)c1 [Compound 117, 4-(2-(2,5-Dimethylphenoxy)-5-nitrophenylsulfonyl)thiomorpholine]	> 5	144 to 147

Other lines, results leading:

Ki (CCR3 receptor) [nM]	melting point [°C]	SMILES
> 5	182 to 186	O=[N+]([O-])c1ccc(Sc2cc(Cl)ccc2Cl)c(S(=O)(=O)N2CCOCC2)c1 [Compound 110, 4-(2-(2,5-Dichlorophenylthio)-5-nitrophenylsulfonyl)morpholine]
> 5	189 to 191	O=[N+]([O-])c1ccc(Sc2cc(Cl)ccc2Cl)c(S(=O)(=O)N2CCSCC2)c1 [Compound 114, 4-(2-(2,5-Dichlorophenylthio)-5-nitrophenylsulfonyl)thiomorpholine]
100 to 500	142 to 145	Cc1ccc(C)c(Sc2ccc([N+](=O)[O-])cc2S(=O)(=O)N2CCNCC2)c1 [Compound 122, 1-(2-(2,5-Dimethylphenylthio)-5-nitrophenylsulfonyl)piperazine]
10 to 25	150 to 153	O=[N+]([O-])c1ccc(Sc2cc(Cl)ccc2Cl)c(S(=O)(=O)N2CCNCC2)c1 [Compound 123, 1-(2-(2,5-Dichlorophenylthio)-5-nitrophenylsulfonyl)piperazine]
